Values joined by “and” are separate entries in the source; they are usually repeats but may differ in a detail not shown here. Identical values can stand only once.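 Grown in 96-well plates, cells were treated for 48 hours with each compound at five concentrations. Insufficient inhibition: endpoint recorded as highest concentration tested. GI50 is the concentration that inhibits growth by half.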 Active and inactive are the calls of the source. No stated cut-off is given here; in the data, active = GI50 up to about 1.1 µM and inactive = higher.
How the values were obtained:
Experiment in all cases: NCI anticancer screen, dose series, 48 h
SNB-75 = tested on: SNB-75
SNB-19 = tested on: SNB-19
MCF7 = tested on: MCF7
A498 = tested on: A498
K562 = tested on: K562
HCC 2998 = tested on: HCC 2998
SN12C = tested on: SN12C
ACHN = tested on: ACHN
NCI-H226 = tested on: NCI-H226
UO-31 = tested on: UO-31
T47D = tested on: T47D
MDA-MB-231 = tested on: MDA-MB-231
DU-145 = tested on: DU-145
OVCAR-4 = tested on: OVCAR-4
SK-MEL-2 = tested on: SK-MEL-2
SK-OV-3 = tested on: SK-OV-3
TK-10 = tested on: TK-10
SK-MEL-28 = tested on: SK-MEL-28
NCI-H522 = tested on: NCI-H522
SK-MEL-5 = tested on: SK-MEL-5
MDA-MB-435 = tested on: MDA-MB-435
OVCAR-5 = tested on: OVCAR-5
Malme-3M = tested on: Malme-3M
COLO 205 = tested on: COLO 205
OVCAR-8 = tested on: OVCAR-8
U-251 = tested on: U-251
NCI-H23 = tested on: NCI-H23
RXF 393 = tested on: RXF 393
Hs-578T = tested on: Hs-578T
SF-295 = tested on: SF-295
SW-620 = tested on: SW-620
786-0 = tested on: 786-0
NCI-H460 = tested on: NCI-H460
HT-29 = tested on: HT-29
EKVX = tested on: EKVX
SF-539 = tested on: SF-539
PC-3 = tested on: PC-3
M14 = tested on: M14
NCI/ADR-RES = tested on: NCI/ADR-RES
MOLT-4 = tested on: MOLT-4
A549 = tested on: A549
CAKI-1 = tested on: CAKI-1
HOP-62 = tested on: HOP-62
IGROV-1 = tested on: IGROV-1
UACC-62 = tested on: UACC-62
LOX IMVI = tested on: LOX IMVI
SF-268 = tested on: SF-268
HCT-15 = tested on: HCT-15
RPMI-8226 = tested on: RPMI-8226
HCT-116 = tested on: HCT-116
HOP-92 = tested on: HOP-92
HL-60 = tested on: HL-60
SR = tested on: SR
MDA-N = tested on: MDA-N
OVCAR-3 = tested on: OVCAR-3
UACC-257 = tested on: UACC-257
KM12 = tested on: KM12
CCRF-CEM = tested on: CCRF-CEM

Measured: GI50

C=CCOC(=O)CCCCCCCCCCCCCCCOC(=O)C1=C(CCC[C@@H](C)O[Si](C)(C)C(C)(C)C)N=C(N)N2[C@H](CC3(CC/C=C\[C@H](CC)O[Si](C(C)C)(C(C)C)C(C)C)OCCO3)CC[C@@H]12
inactive: SNB-75 83.8 µM | SNB-19 > 100 µM | MCF7 31.9 µM | A498 > 100 µM | HCC 2998 49.3 µM | SN12C > 100 µM | ACHN > 100 µM | NCI-H226 > 100 µM | UO-31 63.5 µM | T47D > 100 µM | MDA-MB-231 > 100 µM | DU-145 > 100 µM | OVCAR-4 > 100 µM | SK-MEL-2 > 100 µM | SK-OV-3 > 100 µM | TK-10 > 100 µM | SK-MEL-28 > 100 µM
active: K562 < 0.01 µM

CC1CC(C)CC(NC2=NCCO2)C1 (stereo not given)
inactive: NCI-H522 > 100 µM | SK-MEL-5 > 100 µM | SNB-19 > 100 µM | MDA-MB-435 > 100 µM | OVCAR-5 > 100 µM | Malme-3M > 100 µM | COLO 205 > 100 µM | MCF7 > 100 µM | A498 > 100 µM | K562 > 100 µM | OVCAR-8 > 100 µM | U-251 > 100 µM | NCI-H23 > 100 µM | RXF 393 > 100 µM | HCC 2998 > 100 µM | Hs-578T > 100 µM | SF-295 > 100 µM | SN12C > 100 µM | ACHN > 100 µM | SW-620 > 100 µM | 786-0 > 100 µM | NCI-H226 > 100 µM | UO-31 > 100 µM | NCI-H460 > 100 µM | HT-29 > 100 µM | EKVX > 100 µM | SF-539 > 100 µM | PC-3 > 100 µM | T47D > 100 µM | M14 > 100 µM | NCI/ADR-RES > 100 µM | MOLT-4 > 100 µM | A549 > 100 µM | MDA-MB-231 > 100 µM | CAKI-1 > 100 µM | HOP-62 > 100 µM | DU-145 > 100 µM | IGROV-1 > 100 µM | UACC-62 > 100 µM | LOX IMVI > 100 µM | SF-268 > 100 µM | OVCAR-4 > 100 µM | RPMI-8226 > 100 µM | HCT-116 > 100 µM | HOP-92 > 100 µM | HL-60 > 100 µM | SK-MEL-2 > 100 µM | SR > 100 µM | MDA-N > 100 µM | OVCAR-3 > 100 µM | TK-10 > 100 µM | UACC-257 > 100 µM | KM12 > 100 µM | SK-MEL-28 > 100 µM | CCRF-CEM > 100 µM
> 100 µM: HCT-15

COC(=O)C1=COC(C)C2CN3CCc4c([nH]c5ccccc45)C3CC12 (stereo not given)
inactive: SNB-19 84.5 µM | MDA-MB-435 52.1 µM | OVCAR-5 > 100 µM | Hs-578T 49 µM and 26 µM | HOP-62 > 100 µM and 55.1 µM | SF-268 54.1 µM | SK-OV-3 58.7 µM

CCOC(=O)/C=C(/N=P(c1ccccc1)(c1ccccc1)c1ccccc1)C(F)(F)F
> 10 µM: HCT-15
inactive: SNB-75 > 10 µM | NCI-H522 61.9 µM | SK-MEL-5 > 10 µM | SNB-19 > 10 µM | MDA-MB-435 > 10 µM | OVCAR-5 > 10 µM | Malme-3M > 10 µM | COLO 205 > 10 µM | A498 > 10 µM | K562 > 10 µM | OVCAR-8 > 10 µM | NCI-H23 > 10 µM | RXF 393 > 10 µM | HCC 2998 22 µM | Hs-578T > 10 µM | SF-295 > 10 µM | SN12C > 10 µM | ACHN > 10 µM | 786-0 > 10 µM | NCI-H226 > 10 µM | UO-31 > 100 µM | NCI-H460 > 10 µM | HT-29 > 10 µM | EKVX > 10 µM | SF-539 > 10 µM | PC-3 > 10 µM | T47D 22.1 µM | M14 > 10 µM | NCI/ADR-RES > 10 µM | MOLT-4 > 10 µM | A549 > 10 µM | MDA-MB-231 > 10 µM | HOP-62 > 10 µM | DU-145 > 10 µM | IGROV-1 > 10 µM | UACC-62 5.9 µM | LOX IMVI > 10 µM | SF-268 > 10 µM | OVCAR-4 > 10 µM | RPMI-8226 > 10 µM | HCT-116 > 10 µM | HOP-92 1.44 µM | HL-60 > 10 µM | SK-MEL-2 > 10 µM | SK-OV-3 > 100 µM | SR > 10 µM | MDA-N > 10 µM | OVCAR-3 > 10 µM | TK-10 > 10 µM | UACC-257 > 10 µM | KM12 > 10 µM | SK-MEL-28 > 10 µM | CCRF-CEM > 10 µM

Reference: ChEMBL document CHEMBL1201862, “PubChem BioAssay data set” (2004)
